According to PubChem BioAssay (NCI):
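Each compound was tested at five concentrations against cells in 96-well plates for 48 hours. Abbreviation: GI50, concentration required for 50% inhibition of growth. TGI marks complete inhibition of growth.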

Key:
Experiment in all cases: growth of human tumour cells (NCI), 48 h
LOX IMVI melanoma = tested on: LOX IMVI melanoma
SNB-75 CNS = tested on: SNB-75 CNS
HS 578T breast = tested on: HS 578T breast
SF-268 CNS = tested on: SF-268 CNS
HL-60(TB) leukemia = tested on: HL-60(TB) leukemia
CAKI-1 renal = tested on: CAKI-1 renal
CCRF-CEM leukemia = tested on: CCRF-CEM leukemia
HOP-92 NSCLC = tested on: HOP-92 NSCLC
T-47D breast = tested on: T-47D breast
MCF7 breast = tested on: MCF7 breast
RXF 393 renal = tested on: RXF 393 renal
HT29 colon = tested on: HT29 colon
K-562 leukemia = tested on: K-562 leukemia
MDA-MB-231 breast = tested on: MDA-MB-231 breast
HOP-62 NSCLC = tested on: HOP-62 NSCLC
MALME-3M melanoma = tested on: MALME-3M melanoma
SF-539 CNS = tested on: SF-539 CNS
OVCAR-8 ovarian = tested on: OVCAR-8 ovarian
NCI/ADR-RES ovarian = tested on: NCI/ADR-RES ovarian
HCC-2998 colon = tested on: HCC-2998 colon
PC-3 prostate = tested on: PC-3 prostate
SW-620 colon = tested on: SW-620 colon
BT-549 breast = tested on: BT-549 breast
ACHN renal = tested on: ACHN renal
IGROV1 ovarian = tested on: IGROV1 ovarian
MOLT-4 leukemia = tested on: MOLT-4 leukemia
M14 melanoma = tested on: M14 melanoma
SR leukemia = tested on: SR leukemia
SK-MEL-2 melanoma = tested on: SK-MEL-2 melanoma
UACC-62 melanoma = tested on: UACC-62 melanoma
SNB-19 CNS = tested on: SNB-19 CNS
786-0 renal = tested on: 786-0 renal
SK-MEL-28 melanoma = tested on: SK-MEL-28 melanoma
A498 renal = tested on: A498 renal
NCI-H460 lung = tested on: NCI-H460 lung
RPMI-8226 leukemia = tested on: RPMI-8226 leukemia
NCI-H23 lung = tested on: NCI-H23 lung
NCI-H522 lung = tested on: NCI-H522 lung
SK-MEL-5 melanoma = tested on: SK-MEL-5 melanoma
UO-31 renal = tested on: UO-31 renal
A549 NSCLC = tested on: A549 NSCLC
SN12C renal = tested on: SN12C renal
MDA-MB-435 = tested on: MDA-MB-435
U251 CNS = tested on: U251 CNS
EKVX NSCLC = tested on: EKVX NSCLC
SK-OV-3 ovarian = tested on: SK-OV-3 ovarian
KM12 colon = tested on: KM12 colon
OVCAR-5 ovarian = tested on: OVCAR-5 ovarian
HCT-116 colon = tested on: HCT-116 colon
DU-145 prostate = tested on: DU-145 prostate
TK-10 renal = tested on: TK-10 renal
OVCAR-4 ovarian = tested on: OVCAR-4 ovarian
UACC-257 melanoma = tested on: UACC-257 melanoma
COLO 205 colon = tested on: COLO 205 colon
HCT-15 colon = tested on: HCT-15 colon
SF-295 CNS = tested on: SF-295 CNS
NCI-H226 lung = tested on: NCI-H226 lung

`Fc1ccc(-c2cc3nc(C(Cl)Cl)nc(-c4ccco4)n3n2)cc1` gave a GI50 (LOX IMVI melanoma) of over 100 µM, a TGI (LOX IMVI melanoma) of over 100 µM and a GI50 (SNB-75 CNS) of 0.638 µM. The TGI (SNB-75 CNS) was 3.99 µM, the GI50 (HS 578T breast) was 1.45 µM and the TGI (HS 578T breast) was 4.91 µM. It also gave a GI50 (SF-268 CNS) of 1.24 µM, a TGI (SF-268 CNS) of 8.16 µM and a GI50 (HL-60(TB) leukemia) of 0.3 µM. It also gave a GI50 (CAKI-1 renal) of 0.948 µM, a TGI (CAKI-1 renal) of 4.36 µM and a GI50 (CCRF-CEM leukemia) of over 100 µM. It also gave a TGI (CCRF-CEM leukemia) of over 100 µM, a GI50 (HOP-92 NSCLC) of 0.541 µM and a TGI (HOP-92 NSCLC) of 3.37 µM. For the same compound, the GI50 (T-47D breast) was 1.01 µM, the TGI (T-47D breast) was 6.71 µM and the GI50 (MCF7 breast) was 0.273 µM. The TGI (MCF7 breast) was 3.24 µM, the GI50 (RXF 393 renal) was 0.413 µM and the TGI (RXF 393 renal) was 2.51 µM. It also gave a GI50 (HT29 colon) of 0.312 µM, a TGI (HT29 colon) of 1.71 µM and a GI50 (K-562 leukemia) of 1.79 µM. The TGI (K-562 leukemia) was over 100 µM, the GI50 (MDA-MB-231 breast) was 0.368 µM and the TGI (MDA-MB-231 breast) was 2.33 µM. For the same compound, the GI50 (HOP-62 NSCLC) was 0.504 µM, the TGI (HOP-62 NSCLC) was 2.84 µM and the GI50 (MALME-3M melanoma) was over 100 µM. For the same compound, the TGI (MALME-3M melanoma) was over 100 µM, the GI50 (SF-539 CNS) was 0.832 µM and the TGI (SF-539 CNS) was 3.71 µM. It also gave a GI50 (OVCAR-8 ovarian) of 0.809 µM, a TGI (OVCAR-8 ovarian) of over 100 µM and a GI50 (NCI/ADR-RES ovarian) of 0.562 µM. For the same compound, the TGI (NCI/ADR-RES ovarian) was 6.04 µM, the GI50 (HCC-2998 colon) was 0.4 µM and the TGI (HCC-2998 colon) was 1.65 µM. It also gave a GI50 (PC-3 prostate) of 0.727 µM, a TGI (PC-3 prostate) of 3.88 µM and a GI50 (SW-620 colon) of 0.402 µM. It also gave a TGI (SW-620 colon) of 3.55 µM, a GI50 (BT-549 breast) of 35.3 µM and a TGI (BT-549 breast) of over 100 µM. It also gave a GI50 (ACHN renal) of 0.296 µM, a TGI (ACHN renal) of 1.34 µM and a GI50 (IGROV1 ovarian) of 11.6 µM. It also gave a TGI (IGROV1 ovarian) of over 100 µM, a GI50 (MOLT-4 leukemia) of over 47.4 µM and a TGI (MOLT-4 leukemia) of over 100 µM. The GI50 (M14 melanoma) was over 100 µM, the TGI (M14 melanoma) was over 100 µM and the GI50 (SR leukemia) was 17.8 µM. It also gave a TGI (SR leukemia) of over 100 µM, a GI50 (SK-MEL-2 melanoma) of 5.36 µM and a TGI (SK-MEL-2 melanoma) of 20.4 µM. It also gave a GI50 (UACC-62 melanoma) of 3.61 µM, a TGI (UACC-62 melanoma) of over 53.8 µM and a GI50 (SNB-19 CNS) of 0.541 µM. It also gave a TGI (SNB-19 CNS) of 5.81 µM, a GI50 (786-0 renal) of 2.77 µM and a TGI (786-0 renal) of 27.5 µM. It also gave a GI50 (SK-MEL-28 melanoma) of 2.46 µM, a TGI (SK-MEL-28 melanoma) of 6.46 µM and a GI50 (A498 renal) of 1.21 µM. It also gave a TGI (A498 renal) of 2.62 µM, a GI50 (NCI-H460 lung) of 0.217 µM and a TGI (NCI-H460 lung) of 0.533 µM. The GI50 (RPMI-8226 leukemia) was 0.481 µM, the TGI (RPMI-8226 leukemia) was 4.03 µM and the GI50 (NCI-H23 lung) was 2.44 µM. It also gave a TGI (NCI-H23 lung) of over 58 µM, a GI50 (NCI-H522 lung) of over 87.9 µM and a TGI (NCI-H522 lung) of over 100 µM. The GI50 (SK-MEL-5 melanoma) was over 100 µM, the TGI (SK-MEL-5 melanoma) was over 100 µM and the GI50 (UO-31 renal) was 1.32 µM. The TGI (UO-31 renal) was 5.78 µM, the GI50 (A549 NSCLC) was 0.77 µM and the TGI (A549 NSCLC) was 5.37 µM. It also gave a GI50 (SN12C renal) of over 100 µM, a TGI (SN12C renal) of over 100 µM and a GI50 (MDA-MB-435) of 1.54 µM. The TGI (MDA-MB-435) was 6.82 µM, the GI50 (U251 CNS) was 0.309 µM and the TGI (U251 CNS) was 2.7 µM. For the same compound, the GI50 (EKVX NSCLC) was 1.28 µM, the TGI (EKVX NSCLC) was 4.86 µM and the GI50 (SK-OV-3 ovarian) was 2.88 µM. For the same compound, the TGI (SK-OV-3 ovarian) was over 49.4 µM, the GI50 (KM12 colon) was 0.877 µM and the TGI (KM12 colon) was 3.66 µM. It also gave a GI50 (OVCAR-5 ovarian) of 1.32 µM, a TGI (OVCAR-5 ovarian) of 6.7 µM and a GI50 (HCT-116 colon) of 0.31 µM. For the same compound, the TGI (HCT-116 colon) was 1.1 µM, the GI50 (DU-145 prostate) was 0.303 µM and the TGI (DU-145 prostate) was 0.954 µM. It also gave a GI50 (TK-10 renal) of 3.54 µM, a TGI (TK-10 renal) of 7.5 µM and a GI50 (OVCAR-4 ovarian) of 2.62 µM. For the same compound, the TGI (OVCAR-4 ovarian) was 17.5 µM, the GI50 (UACC-257 melanoma) was 3.53 µM and the TGI (UACC-257 melanoma) was 19.6 µM. The GI50 (COLO 205 colon) was 0.624 µM, the TGI (COLO 205 colon) was 2.48 µM and the GI50 (HCT-15 colon) was 0.486 µM. The TGI (HCT-15 colon) was 16.4 µM, the GI50 (SF-295 CNS) was 0.663 µM and the TGI (SF-295 CNS) was 4.08 µM. The GI50 (NCI-H226 lung) was over 89.5 µM and the TGI (NCI-H226 lung) was over 100 µM.
